Source: PubChem BioAssay AID1963982 (Molecular Pharmacology Branch, DTP, NCI, 2024)

Test system: 313798-341-R-J2-PDC spheroids, viability
Assay: Anticancer human tumor 313798-341-R-J2-PDC patient-derived cervical squamous cell carcinoma cell line growth inhibition [PI3K]
Conditions: spheroids with HUVEC and MSC; for viability, T/C: stronger effect = lower value
Method in brief: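 Combination activity was assessed by viability in multicellular tumor spheroids carrying HUVEC and MSC components. Agents were tested with PI3K inhibitors from a Cmax-based top dose (or 10 microM) downward in half-log increments.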

[1] = curve of first compound, second compound 0.0316 µM
[2] = curve of first compound, second compound 0.1 µM
[3] = curve of first compound, second compound 0.316 µM
[4] = curve of first compound, second compound 1 µM
[5] = curve of first compound, second compound 3.16 µM
[6] = curve of first compound, second compound 10 µM
[7] = second compound 0.0316 µM, first compound 0.0316 µM
[8] = second compound 0.0316 µM, first compound 0.1 µM
[9] = second compound 0.1 µM, first compound 0.0316 µM
[10] = second compound 0.1 µM, first compound 0.1 µM
[11] = second compound 0.316 µM, first compound 0.0316 µM
[12] = second compound 0.316 µM, first compound 0.1 µM
[13] = second compound 1 µM, first compound 0.0316 µM
[14] = second compound 1 µM, first compound 0.1 µM
[15] = second compound 3.16 µM, first compound 0.0316 µM
[16] = second compound 3.16 µM, first compound 0.1 µM
[17] = second compound 10 µM, first compound 0.0316 µM
[18] = second compound 10 µM, first compound 0.1 µM
[19] = second compound 0.0316 µM, first compound 0.316 µM
[20] = second compound 0.0316 µM, first compound 1 µM
[21] = second compound 0.0316 µM, first compound 3.16 µM
[22] = second compound 0.0316 µM, first compound 10 µM
[23] = second compound 0.1 µM, first compound 0.316 µM
[24] = second compound 0.1 µM, first compound 1 µM
[25] = second compound 0.1 µM, first compound 3.16 µM
[26] = second compound 0.1 µM, first compound 10 µM
[27] = second compound 0.316 µM, first compound 0.316 µM
[28] = second compound 0.316 µM, first compound 1 µM
[29] = second compound 0.316 µM, first compound 3.16 µM
[30] = second compound 0.316 µM, first compound 10 µM
[31] = second compound 1 µM, first compound 0.316 µM
[32] = second compound 1 µM, first compound 1 µM
[33] = second compound 1 µM, first compound 3.16 µM
[34] = second compound 1 µM, first compound 10 µM
[35] = second compound 3.16 µM, first compound 0.316 µM
[36] = second compound 3.16 µM, first compound 1 µM
[37] = second compound 3.16 µM, first compound 3.16 µM
[38] = second compound 3.16 µM, first compound 10 µM
[39] = second compound 10 µM, first compound 0.316 µM
[40] = second compound 10 µM, first compound 1 µM
[41] = second compound 10 µM, first compound 3.16 µM
[42] = second compound 10 µM, first compound 10 µM
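Further: spheroids exposed to compounds for seven days.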
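Wherever viability, T/C is given: 100% = DMSO vehicle control viability.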

For `CC(=O)c1c(C)c2cnc(Nc3ccc(N4CCNCC4)cn3)nc2n(C2CCCC2)c1=O` + Cc1nc(NC(=O)N2CCCC2C(N)=O)sc1-c1ccnc(C(C)(C)C(F)(F)F)c1, the IC50 [1] was > 0.1 µM, the IC50 [2] was > 0.1 µM and the IC50 [3] was > 0.1 µM. For the same compound, the IC50 [4] was > 0.1 µM, the IC50 [5] was > 0.1 µM and the IC50 [6] was < 0.000316 µM. The viability, T/C (second compound 0.0316 µM, first compound 0.000316 µM) was 105%, the viability, T/C (second compound 0.0316 µM, first compound 0.001 µM) was 96.5% and the viability, T/C (second compound 0.0316 µM, first compound 0.00316 µM) was 110%. For the same compound, the viability, T/C (second compound 0.0316 µM, first compound 0.01 µM) was 105%, the viability, T/C [7] was 108% and the viability, T/C [8] was 111%. For the same compound, the viability, T/C (second compound 0.1 µM, first compound 0.000316 µM) was 108%, the viability, T/C (second compound 0.1 µM, first compound 0.001 µM) was 99.1% and the viability, T/C (second compound 0.1 µM, first compound 0.00316 µM) was 107%. It also gave a viability, T/C (second compound 0.1 µM, first compound 0.01 µM) of 107%, a viability, T/C [9] of 123% and a viability, T/C [10] of 110%. The viability, T/C (second compound 0.316 µM, first compound 0.000316 µM) was 110%, the viability, T/C (second compound 0.316 µM, first compound 0.001 µM) was 101% and the viability, T/C (second compound 0.316 µM, first compound 0.00316 µM) was 96.3%. It also gave a viability, T/C (second compound 0.316 µM, first compound 0.01 µM) of 108%, a viability, T/C [11] of 104% and a viability, T/C [12] of 115%. It also gave a viability, T/C (second compound 1 µM, first compound 0.000316 µM) of 95.2%, a viability, T/C (second compound 1 µM, first compound 0.001 µM) of 98.1% and a viability, T/C (second compound 1 µM, first compound 0.00316 µM) of 96%. For the same compound, the viability, T/C (second compound 1 µM, first compound 0.01 µM) was 98.7%, the viability, T/C [13] was 104% and the viability, T/C [14] was 102%. It also gave a viability, T/C (second compound 3.16 µM, first compound 0.000316 µM) of 68.3%, a viability, T/C (second compound 3.16 µM, first compound 0.001 µM) of 58.9% and a viability, T/C (second compound 3.16 µM, first compound 0.00316 µM) of 71.8%. The viability, T/C (second compound 3.16 µM, first compound 0.01 µM) was 69.4%, the viability, T/C [15] was 58.4% and the viability, T/C [16] was 79%. It also gave a viability, T/C (second compound 10 µM, first compound 0.000316 µM) of 40.4%, a viability, T/C (second compound 10 µM, first compound 0.001 µM) of 41.7% and a viability, T/C (second compound 10 µM, first compound 0.00316 µM) of 39.5%. The viability, T/C (second compound 10 µM, first compound 0.01 µM) was 33%, the viability, T/C [17] was 41.4% and the viability, T/C [18] was 36.4%.

In the case of `C#Cc1c(F)ccc2cc(O)cc(-c3ncc4c(N5CC6CCC(C5)N6)nc(OCC56CCCN5CC(F)C6)nc4c3F)c12` (configuration not stated) + Cc1nc(NC(=O)N2CCCC2C(N)=O)sc1-c1ccnc(C(C)(C)C(F)(F)F)c1, the IC50 [1] is reported as > 10 µM, the IC50 [2] is reported as > 10 µM and the IC50 [3] is reported as > 10 µM. For the same compound, the IC50 [4] was > 10 µM, the IC50 [5] was 9.34 µM and the IC50 [6] was < 0.0316 µM. For the same compound, the viability, T/C [7] was 92.7%, the viability, T/C [8] was 91.5% and the viability, T/C [19] was 90.5%. It also gave a viability, T/C [20] of 99.2%, a viability, T/C [21] of 103% and a viability, T/C [22] of 102%. For the same compound, the viability, T/C [9] was 105%, the viability, T/C [10] was 106% and the viability, T/C [23] was 112%. It also gave a viability, T/C [24] of 97%, a viability, T/C [25] of 105% and a viability, T/C [26] of 96.5%. For the same compound, the viability, T/C [11] was 99.9%, the viability, T/C [12] was 98.4% and the viability, T/C [27] was 121%. It also gave a viability, T/C [28] of 108%, a viability, T/C [29] of 99.1% and a viability, T/C [30] of 100%. It also gave a viability, T/C [13] of 97.6%, a viability, T/C [14] of 80.3% and a viability, T/C [31] of 89.3%. For the same compound, the viability, T/C [32] was 89.7%, the viability, T/C [33] was 90.9% and the viability, T/C [34] was 79%. It also gave a viability, T/C [15] of 59.9%, a viability, T/C [16] of 62.5% and a viability, T/C [35] of 59.1%. It also gave a viability, T/C [36] of 60.1%, a viability, T/C [37] of 54.6% and a viability, T/C [38] of 44.8%. The viability, T/C [17] was 41.7%, the viability, T/C [18] was 39.8% and the viability, T/C [39] was 33.2%. It also gave a viability, T/C [40] of 33.9%, a viability, T/C [41] of 31.3% and a viability, T/C [42] of 27.2%.

In the case of `CCN1CCN(Cc2ccc(Nc3ncc(F)c(-c4cc(F)c5nc(C)n(C(C)C)c5c4)n3)nc2)CC1`, the viability, T/C (compound 0.01 µM) is reported as 99.5% [middle of 4 runs], the viability, T/C (compound 0.0316 µM) is reported as 103% [middle of 4 runs] and the viability, T/C (compound 0.1 µM) is reported as 102% [middle of 4 runs]. For the same compound, the viability, T/C (compound 0.316 µM) was 120% [middle of 4 runs], the viability, T/C (compound 1 µM) was 122% [middle of 4 runs] and the IC50 (curve of compound) was > 1 µM.

In the case of `CC(Cn1ccc(-c2ccc(C#N)c(Cl)c2)n1)NC(=O)c1cc(C(C)O)[nH]n1` (configuration not stated) + CC(Nc1ncnc2nc[nH]c12)c1cc2cccc(Cl)c2c(=O)n1-c1ccccc1, the IC50 [1] is reported as > 10 µM, the IC50 [2] is reported as > 10 µM and the IC50 [3] is reported as > 10 µM. For the same compound, the IC50 [4] was > 10 µM, the IC50 [5] was > 10 µM and the IC50 [6] was > 10 µM. It also gave a viability, T/C [7] of 119%, a viability, T/C [8] of 103% and a viability, T/C [19] of 106%. The viability, T/C [20] was 115%, the viability, T/C [21] was 101% and the viability, T/C [22] was 101%. For the same compound, the viability, T/C [9] was 101%, the viability, T/C [10] was 105% and the viability, T/C [23] was 104%. It also gave a viability, T/C [24] of 103%, a viability, T/C [25] of 98% and a viability, T/C [26] of 95%. It also gave a viability, T/C [11] of 90.9%, a viability, T/C [12] of 103% and a viability, T/C [27] of 96.6%. For the same compound, the viability, T/C [28] was 101%, the viability, T/C [29] was 102% and the viability, T/C [30] was 90%. It also gave a viability, T/C [13] of 113%, a viability, T/C [14] of 106% and a viability, T/C [31] of 108%. The viability, T/C [32] was 101%, the viability, T/C [33] was 96.2% and the viability, T/C [34] was 91.5%. The viability, T/C [15] was 108%, the viability, T/C [16] was 103% and the viability, T/C [35] was 100%. The viability, T/C [36] was 107%, the viability, T/C [37] was 105% and the viability, T/C [38] was 93.4%. It also gave a viability, T/C [17] of 87.8%, a viability, T/C [18] of 88.3% and a viability, T/C [39] of 94.6%. For the same compound, the viability, T/C [40] was 100%, the viability, T/C [41] was 90.8% and the viability, T/C [42] was 81.7%.
